Experimental data reported in ChEMBL document CHEMBL1146266, “Kojic acid and its manganese and zinc complexes as potential radioprotective agents” (Bioorg Med Chem Lett, 2007).
Calls of active or inactive are those of the source. The rule behind the calls is not given here.

Key:
Mus musculus [1] = experiment: Survival of NMRI mouse for 30 days at 214 mg/kg, sc administered 24 hrs before cobalt 60 gamma irradiation; format: functional; details: light or radiation study, route subcutaneous
Mus musculus [2] = experiment: Survival of NMRI mouse subcutaneously dosed 30 mins before cobalt 60 gamma irradiation; format: functional
Mus musculus [3] = experiment: Increase in survival of subcutaneously dosed NMRI mouse irradiated with cobalt 60 gamma relative to control; format: functional, organism-based
[4] = Toxicity in subcutaneously injected NMRI mouse; format: organism-based; details: in vivo, sc
Mus musculus [5] = experiment: Survival of NMRI mouse for 30 days at 142 mg/kg, sc administered 24 hrs before cobalt 60 gamma irradiation; format: functional; details: light or radiation study, route subcutaneous
Mus musculus [6] = experiment: Survival of NMRI mouse for 30 days at 71 mg/kg, sc administered 24 hrs before cobalt 60 gamma irradiation; format: functional; details: light or radiation study, route subcutaneous

| SMILES | survival at 214 mg/kg (Mus musculus [1]) | Survival (Mus musculus [2]) | Activity (Mus musculus [3]) | LD50 [4] | survival at 142 mg/kg (Mus musculus [5]) | survival at 71 mg/kg (Mus musculus [6]) |
| --- | --- | --- | --- | --- | --- | --- |
| NCCCNCCSP(=O)(O)O [AMIFOSTINE] | 81% | 90% | Active |  |  |  |
| O=c1cc(CO)occ1O [KOJIC ACID] |  |  | Active | 1400 mg/kg | 63% | 28% |
